Legend:
[1] = test system: Gaeumannomyces graminis var. tritici (Ggt); test: In vitro Assay: mycelial growth of Ggt on minimal media agar plates containing test compound; type: cell-based; settings: dark, 19-20° C., 4 to 5 days, diameter of mycelial growth; for inhibition at 0.1 ppm / inhibition at 1 ppm / inhibition at 10 ppm: Gaeumannomyces graminis; for inhibition at 0.1 ppm: read-out: In vitro (ppm) 0.1, Percent Inhibition; for inhibition at 1 ppm: read-out: In vitro (ppm) 1, Percent Inhibition; for inhibition at 10 ppm: read-out: In vitro (ppm) 10, Percent Inhibition
Method in brief: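 Compounds added from acetone stock into minimal (Czapek Dox) agar; plates inoculated with three 4-mm Ggt plugs, incubated in dark at 19-20° C for 4 to 5 days. Colony diameter measured; Percent Inhibition = [1-((treated mm −4)/(control mm −4))]×100.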

Ggt = test: In vivo Assay: control of Ggt on wheat grown in pots of Ggt-infested soil, root disease rating; set-up: species or system Gaeumannomyces graminis var. tritici; settings: 0.5 mg active ingredient per pot, 'Bergen' or 'Anza' wheat in Ggt-infested soil, after four weeks, vs untreated control; for pest or weed control at 0.5 mg/pot: Gaeumannomyces graminis, 672 h, read-out: In vivo, percent disease control
Protocol: Compounds are tested for control of Ggt on ‘Bergen’ or ‘Anza’ varieties of wheat grown in 3-inch square pots containing soil infested with Ggt. The infestation is accomplished by mixing the soil with an inoculum prepared by growing Ggt on ¼ strength potato dextrose agar (4.875 g potato dextrose agar, 5.0 g Bacto agar, 500 mL distilled, deionized water) in plates and using plugs from the plates to infest sterile oats (400 cc whole oats, 350 mL deionized water, autoclaved). After a one-month incubation period at room temperature, the oats are dried and mixed with the soil at 4% v/v. Four wheat seeds are placed on top of the soil in each pot. The test compounds are prepared as an 1:9 acetone/water v/v solution containing 0.18% Tween® 20 to provide a treatment rate of 0.5 mg active ingredient per pot, treated with 3 mL test solution per pot. Five pots are used for each treatment level and the controls, which are untreated, inoculated and non-inoculated pots. After one hour drying time, the seeds are covered with more of the appropriate soil and a layer of vermiculite. The pots are placed in a growth chamber and watered each day. After four weeks, each pot is evaluated for evidence of disease by examination of the seminal roots of each plant under a dissecting microscope. A 0 to 5 rating scale having the following meanings is used:
0=no runner hyphae or lesions present
1=runner hyphae and a few small lesions present on <10% of root system
2=runner hyphae and small lesions present on 10-25% of root system
3=runner hyphae and lesions present on 25-50% of root system
4=runner hyphae and many, large, coalescing lesions on >50% of root system
5=root system and culm completely inundated with lesions and runner hyphae
From each set of five replicates a high and low score is eliminated and a replicate mean is calculated by the average of the remaining three scores. This mean score is then compared to the untreated control score and a percent disease control is calculated.

Row | Compound | inhibition at 0.1 ppm ([1]; 0.1 ppm in minimal media agar) | inhibition at 1 ppm ([1]; 1 ppm in minimal media agar) | inhibition at 10 ppm ([1]; 10 ppm in minimal media agar) | pest or weed control at 0.5 mg/pot (Ggt) | In vitro (ppm) 0.1, Percent Inhibition ([1]; 0.1 ppm in minimal media agar) | In vitro (ppm) 1, Percent Inhibition ([1]; 1 ppm in minimal media agar) | In vitro (ppm) 10, Percent Inhibition ([1]; 10 ppm in minimal media agar) | In vivo, percent disease control (Ggt)
1 | CCN(CC)C(=O)c1c(Cl)ccc(C)c1[Si](C)(C)C [Example 71, N,N-Diethyl-6-chloro-3-methyl-2-(trimethylsilyl)benzamide] | 14% | 8% | < 0% | 50% |  |  |  | 
2 | CCNC(=O)c1c([Si](C)(C)C)sc(C)c1C [Example 271, 4,5-Dimethyl-N-ethyl-2-(trimethylsilyl)-3-thiophenecarboxamide] | 95% | 100% | 100% | 97% |  |  |  | 
3 | CCN(CC)C(=O)c1c(Cl)cccc1[Si](CC)(CC)CC [Example 66, N,N-Diethyl-2-chloro-6-(triethylsilyl)benzamide] | < 0% | < 0% | 58% | 3% |  |  |  | 
4 | C[Si](C)(C)c1cccc(Cl)c1C(=O)NCc1ccco1 [Example 32, 2-Chloro-N-(2-furylmethyl)-6-(trimethylsilyl)benzamide] | 75% | 100% | 100% | 85% |  |  |  | 
5 | C[Si](C)(C)c1cccc(Cl)c1C(=O)NCCCl [Example 29, 2-Chloro-N-(2-chloroethyl)-6-(trimethylsilyl)benzamide] | 100% | 100% | 100% | 97% |  |  |  | 
6 | CCN(SC)C(=O)c1c(Cl)cccc1[Si](C)(C)C [Example 172, 2-Chloro-N-ethyl-N-(methylthio)-6-(trimethylsilyl)benzamide] | 94% | 100% | 100% | 99% |  |  |  | 
7 | C=CC[Si](C)(C)c1cccc(Cl)c1C(=O)NCC [Example 179, 2-Chloro-6-(dimethyl-2-propenylsilyl)-N-ethylbenzamide] | 85% | 88% | 91% | 97% |  |  |  | 
8 | CCN(CC)C(=O)c1c(Cl)cccc1[Si](C(C)C)(C(C)C)C(C)C [Example 68, N,N-Diethyl-2-chloro-6-[tris(1-methylethyl)silyl]benzamide] | 8% | < 0% | 41% | < 0% |  |  |  | 
9 | CCNC(=O)c1c([Si](C)(C)C)ccc(C=O)c1Cl [Example 223, 2-Chloro-N-ethyl-3-formyl-6-(trimethylsilyl)benzamide] | 48% | 93% | 96% | 82% |  |  |  | 
10 | CCNC(=O)c1c(Cl)cccc1NC(C)(C)C [Example 192, 2-Chloro-6-[(1,1-dimethylethyl)amino]-N-ethylbenzamide] | 86% | 95% | 95% | 99% |  |  |  | 
11 | C=C[Si](C)(C)c1cccc(Cl)c1C(=O)NCC [Example 87, N-Ethyl-2-chloro-6-(ethenyldimethylsilyl)benzamide] | 93% | 100% | 100% | 96% |  |  |  | 
12 | CCNC(=O)c1c([Si](C)(C)C)ccc(CO)c1Cl [Example 227, 2-Chloro-N-ethyl-3-(hydroxymethyl)-6-(trimethylsilyl)benzamide] | 36% | 68% | 100% | 34% |  |  |  | 
13 | CCN(CC)C(=O)c1c(Br)ccc(F)c1[Si](C)(C)C [Example 37, 6-Bromo-N,N-diethyl-3-fluoro-2-(trimethylsilyl)benzamide] | 17% | 63% | 87% | 83% |  |  |  | 
14 | CCN(CC)C(=O)c1c(Cl)ccc[c]1[Sn]([CH3])([CH3])[CH3] [Example 7, 2-Chloro-N,N-diethyl-6-(trimethylstannyl)benzamide] |  |  |  |  | 42% | 77% | 100% | 93%
15 | CC[C@H](C)NC(=O)c1c(Cl)cccc1[Si](C)(C)C [Example 152, 2-Chloro-N-(1-methylpropyl)-6-(trimethylsilyl)benzamide, (s)-] | < 0% | 71% | 86% | 54% |  |  |  | 
16 | CCCN(C(=O)c1c(Cl)cccc1[Si](C)(C)C)C(C)C [Example 95, 2-Chloro-N-(1-methylethyl)-N-propyl-6-(trimethylsilyl)benzamide] | < 0% | 62% | 100% | 63% |  |  |  | 
17 | CCOc1ccccc1NC(=O)c1c(Cl)cccc1[Si](C)(C)C [Example 157, 2-Chloro-N-(2-ethoxyphenyl)-6-(trimethylsilyl)benzamide] | 7% | 23% | 91% | 0% |  |  |  | 
18 | CCN(CC)C(=O)c1c(C)ccc(F)c1[Si](C)(C)C [Example 1, N,N-Diethyl-3-fluoro-6-methyl-2-(trimethylsilyl)benzamide] | 6% | 53% | 74% | 91% |  |  |  | 
19 | CCSC(=O)c1c(Cl)cccc1[Si](C)(C)C [Example 77, 2-Chloro-6-(trimethylsilyl)benzenecarbothioic acid, S-ethyl ester] | 13% | 47% | 100% | < 0% |  |  |  | 
20 | CCN(CC)C(=O)c1c(Cl)cccc1[Si](C)(C)CCl [Example 69, N,N-Diethyl-2-chloro-6-[(chloromethyl)dimethylsilyl]benzamide] | 51% | 81% | 100% | 67% |  |  |  | 
21 | CCCCCCCCNC(=O)c1c(Cl)cccc1[Si](C)(C)C [Example 17, 2-Chloro-N-octyl-6-(trimethylsilyl)-benzamide] | 59% | 64% | 64% | < 0% |  |  |  | 
22 | CCNC(=O)c1c([Si](C)(C)C)ccc([N+](=O)[O-])c1Cl [Example 216, 2-Chloro-N-ethyl-3-nitro-6-(trimethylsilyl)benzamide] | 25% | 54% | 92% | 68% |  |  |  | 
23 | CCNC(=O)c1c(Cl)cccc1[Si](C)(C)C [Example 45, 2-Chloro-N-ethyl-6-(trimethylsilyl)benzamide] | 100% | 100% | 100% | 97% |  |  |  | 
24 | C[Si](C)(C)c1cccc(Cl)c1C(=O)NCCBr [Example 153, N-(2-Bromoethyl)-2-chloro-6-(trimethylsilyl)benzamide] | < 0% | 88% | 91% | 29% |  |  |  | 
25 | CN1CCN(C(=O)c2c(Cl)cccc2[Si](C)(C)C)CC1 [Example 133, N-[2-Chloro-6-(trimethylsilyl)benzoyl]-4-methylpiperazine] | 13% | 3% | 18% | < 0% |  |  |  | 
26 | C[Si](C)(C)c1cccc(Cl)c1C(=O)NCCF [Example 155, 2-Chloro-N-(2-fluoroethyl)-6-(trimethylsilyl)benzamide] | < 0% | 64% | 90% | 93% |  |  |  | 
27 | CCNC(=O)c1c([Si](C)(C)C)sc2c1CCCC2 [Example 270, N-Ethyl-2-(trimethylsilyl)-4,5,6,7-tetrahydrobenzo[B]thiophene-3-carboxamide] | 96% | 100% | 100% | 87% |  |  |  | 

From patent publication US6410558B1, “Fungicides for the control of take-all disease of plants” (Monsanto Technology LLC, priority 1991, dated 2002)
